Test results as given in patent US11820729B2 (Johnson & Johnson Consumer Inc., priority 2014, dated 2023).

Tests used:
[1] = test system: 16-hour salivary biofilm on pellicle coated hydroxyapatite pegs; assay: Prevention assay: prevention of bacterial attachment to pellicle coated hydroxyapatite pegs, ATP bioluminescence; type: cell-based; conditions: for ability to prevent bacterial attachment / preventing bacterial attachment the best: simple solution solvent base formulas (Table 11)
Protocol: The formulations in Examples 2-4, 6, 8 and 9 were prepared and test for prevention of bacterial attachment using the prevention assay. In this assay hydroxyapatite-coated polystyrene peg plate (96 pegs, N=8 per group) was exposed to saliva for one minute to form a pellicle at a temperature of 35 C. Then, for each formulation, eight pegs (N=8) were pre-treated for ten minutes with the formulation using an orbital shaker set to 500 RPM at room temperature. As a negative control, eight pegs (N=8) were pre-treated for ten minutes with sterile water. Next, a 16-hour salivary biofilm was grown on these polystyrene peg plates at a temperature of 35 C.
After all treatments were complete, the biofilm from each peg was neutralized and rinsed. The biofilm was harvested via sonication using a Q-Sonica Q700 Ultrasonic Liquid Processor with 431MP4-00 microplate horn Damper and 0.5:1 reverse gain booster (Q-Sonica, Newtown, Conn.). Using a Celsis Rapid Detection RapiScreen kit (Celsis International PLC, Chicago, Ill.), the bacteria were lysed with Celsis Luminex and then the adenosine triphosphate (ATP) from the lysed bacteria was measured using the bioluminescence marker Celcis Luminate and a Centro LB 960 Microplate Luminometer supplied by Berthold Technologies (Wildbad, Germany). Data were reported in log RLU (relative light units) where decreasing log RLUs indicated fewer viable bacteria remained on the biofilm substrate. The log RLUs for the prevention assay are shown on Tables 2, 4, 6, 10, 14, and 16.

S. mutans biofilm = assay: S. mutans single species kill assay (in-vitro biofilm model); type: cell-based; conditions: simple solution formulas (Table 13), 30 second treatment
Protocol: The formulations listed in Example 7 were prepared and tested using an in-vitro single species S. mutans biofilm model. A 24-hour S. mutans biofilm is grown on a polystyrene peg plate (96 pegs, N=6 per test group). The pegs were subsequently treated for thirty seconds with each of formulations H and I, as well as positive and negative controls. The treatment is applied as a single thirty (30) second treatment. The positive control is a commercially available essential oil mouth rinse. The negative control is sterile water. After treatment the biofilm is neutralized and rinsed. The biofilm is harvested via sonication using a Misonix Ultrasonic Liquid Processor (Farmingdale, N.Y.). Using a Celsis Rapid Detection RapiScreen kit (Celsis International PLC, Chicago), the bacteria are lysed with Celsis Luminex and then the adenosine triphosphate (ATP) from the lysed bacteria is measured using the bioluminescence marker LB960 Microplate Luminometer supplied by Berthold (Wildbad, Germany). Data are reported in log RLU (relative light units) where decreasing log RLUs indicates fewer viable bacteria remaining on the biofilm substrate.

SMILES | prevention of bacterial attachment in alcohol free full formulations ([1]; Table 15 formulations, water as the only solvent) | prevention of bacterial attachment in alcohol-free full formulations ([1]; Table 17 formulations, water and propylene glycol as solvents) | ability to prevent bacterial attachment [1] | preventing bacterial attachment the best [1] | log reduction in S. mutans (S. mutans biofilm)
CCCCCCCC(=O)NC(CCCNC(=N)N)C(=O)NC (centres unmarked) [Compound 1, [amino({[4-(methylcarbamoyl)-4-octanamidobutyl]amino})methylidene]azanium] | Prevent Bacterial Attachment | Prevent Bacterial Attachment | have the ability to prevent bacterial attachment | preventing bacterial attachment the best | do not Result in More than a One Log Reduction in S. mutans
CCCCCCCCCCCC(=O)NC(CCCNC(=N)N)C(=O)NCCCCCCCCCC (centres unmarked) [Compound 23, N-(1-(decylamino)-5-guanidino-1-oxopentan-2-yl)dodecanamide] |  |  | have the ability to prevent bacterial attachment |  | 
CCCCCCCCCC(=O)NC(CCCNC(=N)N)C(=O)NCC (centres unmarked) [Compound 24, N-(1-(ethylamino)-5-guanidino-1-oxopentan-2-yl)decanamide] |  |  | have the ability to prevent bacterial attachment |  | 
CCCCCCCCCCCC(=O)NC(CCCN)C(=O)NCCCCCC (centres unmarked) [Compound 17, N-(5-amino-1-(hexylamino)-1-oxopentan-2-yl)dodecanamide] |  |  | have the ability to prevent bacterial attachment | preventing bacterial attachment the best | 
CCCCCCCCCCCC(=O)NC(COP(=O)(O)O)C(=O)NCC (centres unmarked) [Compound 16, 2-dodecanamido-3-(ethylamino)-3-oxopropyl dihydrogen phosphate] |  |  | have the ability to prevent bacterial attachment |  | 
CCCCCCCCNC(=O)C(CCCN)NC(=O)CCCCCCC (centres unmarked) [Compound 19, N-(5-amino-1-(octylamino)-1-oxopentan-2-yl)octanamide] |  |  | have the ability to prevent bacterial attachment | preventing bacterial attachment the best | 
CCCCCCCCCCCCCCCCCC(=O)NC(CCCNC(=N)N)C(=O)NC (centres unmarked) [Compound 7] |  |  |  |  | do not Result in More than a One Log Reduction in S. mutans
CCCCCCCCCCCNC(=O)C(CCCNC(=N)N)NC(=O)CCCCCCC (centres unmarked) [Compound 26, N-(5-guanidino-1-oxo-1-(undecylamino)pentan-2-yl)octanamide] |  |  | have the ability to prevent bacterial attachment | preventing bacterial attachment the best | 
CCCCCCCCCCCCCC(=O)NC(CCCNC(=N)N)C(=O)NCC (centres unmarked) [Compound 20, N-(1-(ethylamino)-5-guanidino-1-oxopentan-2-yl)tetradecanamide] |  |  | have the ability to prevent bacterial attachment |  | 
CCCCCCCCNC(=O)C(CCCNC(=N)N)NC(=O)CCCCCCC (centres unmarked) [Compound 21, N-(5-guanidino-1-(octylamino)-1-oxopentan-2-yl)octanamide] |  |  | have the ability to prevent bacterial attachment | preventing bacterial attachment the best | 
CCCCCCCCCCCNC(=O)C(CCCN)NC(=O)CCCCCCC (centres unmarked) [Compound 18, N-(5-amino-1-oxo-1-(undecylamino)pentan-2-yl)octanamide] |  |  | have the ability to prevent bacterial attachment | preventing bacterial attachment the best | 
CCCCCCCCCCCNC(=O)C(CCCNC(=N)N)NC(=O)CCCCCCCCCCC (centres unmarked) [Compound 25, N-(5-guanidino-1-oxo-1-(undecylamino)pentan-2-yl)dodecanamide] |  |  | have the ability to prevent bacterial attachment |  | 
CCCCCCCCCCCC(=O)NC(CCCNC(=N)N)C(=O)NCCCCCCCC (centres unmarked) [Compound 22, N-(5-guanidino-1-(octylamino)-1-oxopentan-2-yl)dodecanamide] |  |  | have the ability to prevent bacterial attachment | preventing bacterial attachment the best | 
